For assay [1], the target named is T1, thermally-denatured collagen (gelatin) films (Rattus norvegicus, UniProt P02454+P02466).
T1 construct: To make gelatin films, the same collagen solution was denatured at 70° C. for 15 minutes; purchased BD Science; host or cells: rat tail
The assay can be described thus: Photo-triggered CMP binding assay on gelatin films. Here is the method: Collagen/gelatin binding assays. Collagen solution (200 μL, 3.71 mg/mL, type I rat tail, BD Science) in 0.02 N acetic acid was added to each well of a 96-well black/clear-bottom plate (Costar) and air-dried. To make gelatin films, the same collagen solution was denatured at 70° C. for 15 minutes before applying to the well. The dried films were neutralized and washed with 1×PBS buffer (pH 7.4) and deionized water. PBS solution of carboxyfluorescein-labeled caged CMP (40 μL, 50 μM, unless indicated otherwise) pre-equilibrated at 4° C. was added onto each reconstituted collagen or gelatin film and exposed to 365 nm UV light (10 mW/cm^2, from mercury arc lamp) for 11 minutes on ice. Wells for the UV-negative control groups were covered with aluminum foil to block UV exposure. After incubation at 4° C. for over 3 hours (unless indicated otherwise), the unbound materials were removed by rinsing with PBS buffer and deionized water. The films were allowed to dry in dark, after which the fluorescence (ex: 489 nm, em: 533 nm) was measured with a SpectraMax Gemini XPS microplate reader (Molecular Devices). Each binding experiment was done in triplicate.

Assay [2] deals with streptococcal collagen-like protein Scl2.28CL. The assay can be described thus: SDS-PAGE staining of collagen-like protein Scl2.28CL. Format: binding, Streptococcus pyogenes. To be noted: 6 μM, heat activated, 2.5 μg, gel fixed with glutaraldehyde. Here is the method: To prepare MMP-1 cleaved collagen chain fragments, proMMP-1 (1 μg) was activated by p-aminophenylmercuric acetate (1.1 mM) in 132.5 μL of TNC buffer (50 mM Tris-HCl, 0.15 M NaCl, 5 mM CaCl2, 0.02% NaN3, pH 7.5) at 37° C. for 3 hr, after which type I collagen (62.6 μg) was added to the activated MMP-1 solution and incubated at room temperature for at least 3 days. To obtain the cell lysate, confluent HUVECs cultured in EGM-2 media at 37° C. were lysed with lysis buffer (25 mM Tris-HCl, 0.5% Triton X-100, 200 mM NaCl, 2 mM EDTA, phosphatase and protease inhibitors; Roche Applied Science). The lysate solution was spun at 15,000 g for 15 min and the supernatant was collected. The recombinant streptococcal collagen-like protein Scl2.28CL was expressed and characterized following the methods introduced by Mohs et al. (J. Biol. Chem. 282, 29757-29765 (2007)).
(§1) SDS-PAGE staining and imaging. Proteins were resolved on NuPAGE® Novex 4-12% bis-tris gels under denaturating conditions using an XCell SureLock™ Mini-Cell electrophoresis system (Life Technologies). […] The fluorescence intensities of the protein bands were quantified using GE ImageQuant™ TL software. After fluorescence imaging, all gels were further stained with coomassie brilliant blue (CB) G-250 (Bio-Rad) for 2-3 hr followed by washing, and imaging under white light illumination using a Gel Doc EQ system (BioRad).

In the next assay the target is T2, complement factor C1q (Homo sapiens, UniProt P02745+P02746+P02747).
T2 construct: Complement component C1q from human serum; purchased Sigma-Aldrich; host or cells: human serum
Put plainly: SDS-PAGE staining of collagen-like protein C1q. Format: binding. To be noted: 6 μM, heat activated, 2 μg.
Source text: (§2) Acid soluble rat-tail type I collagen, bovine type II collagen, and mouse type IV collagen were purchased from BD Bioscience (San Jose, Calif.). Complement component C1q from human serum, fibronectin from bovine plasma, and laminin from Engelbreth-Holm-Swarm murine sarcoma basement membrane were purchased from Sigma-Aldrich. ProMMP-1, and p-aminophenylmercuric acetate were acquired from EMD millipore. Human umbilical vein endothelial cells (HUVECs) and EGM-2 cell growth media were obtained from Lonza (Walkersville, Md.). Precast NuPAGE® Novex 4-12% Bis-Tris Gel (1.0 mm, 12 well), Novex® Sharp unstained protein standard, and SDS-PAGE running buffer, sample buffer, and other SDS-PAGE reagents were purchased from Life Technologies.
as §1, with “Technologies). NuPAGE® MOPS SDS running buffer containing 50 mM MOPS, 50 mM Tris Base, 0.1% SDS, and 1 mM EDTA (pH 7.7) was used.” for “Technologies).”

The subject of a further assay is fibronectin and laminin. The assay can be described thus: SDS-PAGE staining by heat activated fluorescent CMP, other ECM proteins. Format: binding, bovine (fibronectin), murine (laminin). The settings on record: 6 μM, 2 μg protein per lane.
Source text: as §2
as §1, with “Technologies). NuPAGE® MOPS SDS running buffer containing 50 mM MOPS, 50 mM Tris Base, 0.1% SDS, and 1 mM EDTA (pH 7.7) was used.” for “Technologies).”

Entries after “also recorded” stand apart in the source; their conditions may differ.

T1 sequence (P02454 152-1207 limits assumed): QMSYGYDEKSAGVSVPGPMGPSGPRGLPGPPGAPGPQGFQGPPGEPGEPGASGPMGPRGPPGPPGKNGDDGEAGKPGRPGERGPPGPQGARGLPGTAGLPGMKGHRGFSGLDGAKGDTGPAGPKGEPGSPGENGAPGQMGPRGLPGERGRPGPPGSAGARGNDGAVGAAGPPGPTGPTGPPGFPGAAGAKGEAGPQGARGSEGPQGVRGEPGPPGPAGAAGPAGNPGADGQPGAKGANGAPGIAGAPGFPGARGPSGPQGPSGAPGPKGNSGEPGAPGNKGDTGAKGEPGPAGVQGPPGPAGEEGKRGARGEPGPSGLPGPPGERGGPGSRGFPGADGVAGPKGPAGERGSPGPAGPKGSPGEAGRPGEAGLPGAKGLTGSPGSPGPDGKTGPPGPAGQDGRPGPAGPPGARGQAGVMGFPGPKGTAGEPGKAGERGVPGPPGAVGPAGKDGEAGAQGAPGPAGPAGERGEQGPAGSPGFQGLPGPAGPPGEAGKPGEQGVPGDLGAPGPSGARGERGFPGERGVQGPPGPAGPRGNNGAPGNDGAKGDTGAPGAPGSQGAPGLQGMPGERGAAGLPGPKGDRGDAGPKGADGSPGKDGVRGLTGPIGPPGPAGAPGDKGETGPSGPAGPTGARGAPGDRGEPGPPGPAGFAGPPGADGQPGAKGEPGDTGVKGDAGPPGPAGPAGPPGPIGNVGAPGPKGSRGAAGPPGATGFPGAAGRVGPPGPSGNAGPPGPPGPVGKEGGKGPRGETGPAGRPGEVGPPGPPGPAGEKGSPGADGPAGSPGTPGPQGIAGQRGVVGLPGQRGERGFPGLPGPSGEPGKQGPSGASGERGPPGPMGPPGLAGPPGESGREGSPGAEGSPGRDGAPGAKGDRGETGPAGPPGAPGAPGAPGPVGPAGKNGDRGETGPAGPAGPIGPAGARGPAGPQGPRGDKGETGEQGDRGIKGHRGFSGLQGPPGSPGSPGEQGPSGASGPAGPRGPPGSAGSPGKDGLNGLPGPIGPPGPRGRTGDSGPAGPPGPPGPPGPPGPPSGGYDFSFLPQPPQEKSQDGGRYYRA
T1 sequence (P02466 86-1125 limits assumed): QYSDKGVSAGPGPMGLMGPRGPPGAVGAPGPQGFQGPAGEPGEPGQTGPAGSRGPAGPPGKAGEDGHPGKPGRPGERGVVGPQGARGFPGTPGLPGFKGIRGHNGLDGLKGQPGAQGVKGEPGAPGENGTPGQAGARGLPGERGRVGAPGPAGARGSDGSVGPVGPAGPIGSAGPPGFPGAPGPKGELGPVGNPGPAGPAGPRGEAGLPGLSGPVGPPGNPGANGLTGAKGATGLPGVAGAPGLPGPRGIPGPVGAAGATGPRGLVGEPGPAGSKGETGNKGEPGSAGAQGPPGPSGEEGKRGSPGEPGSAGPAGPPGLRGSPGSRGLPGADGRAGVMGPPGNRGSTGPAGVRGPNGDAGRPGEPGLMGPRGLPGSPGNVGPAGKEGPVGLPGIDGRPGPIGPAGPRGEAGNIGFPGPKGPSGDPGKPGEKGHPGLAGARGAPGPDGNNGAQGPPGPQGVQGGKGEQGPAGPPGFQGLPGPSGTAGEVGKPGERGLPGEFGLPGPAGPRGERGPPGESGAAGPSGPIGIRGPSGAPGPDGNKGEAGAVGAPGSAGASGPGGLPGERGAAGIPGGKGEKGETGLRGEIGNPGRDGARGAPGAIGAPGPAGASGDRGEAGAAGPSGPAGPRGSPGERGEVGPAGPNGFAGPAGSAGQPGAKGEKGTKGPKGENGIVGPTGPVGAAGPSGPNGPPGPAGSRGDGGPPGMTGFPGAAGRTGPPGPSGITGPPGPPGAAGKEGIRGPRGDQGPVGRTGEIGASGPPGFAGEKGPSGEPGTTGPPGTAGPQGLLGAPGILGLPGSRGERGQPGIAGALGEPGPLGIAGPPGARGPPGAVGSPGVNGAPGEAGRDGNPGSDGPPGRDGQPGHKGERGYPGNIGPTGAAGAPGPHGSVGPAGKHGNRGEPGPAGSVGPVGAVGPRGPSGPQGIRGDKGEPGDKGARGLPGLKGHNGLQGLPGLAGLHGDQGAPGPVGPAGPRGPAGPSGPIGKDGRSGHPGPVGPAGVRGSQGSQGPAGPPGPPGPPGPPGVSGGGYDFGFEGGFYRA
T2 sequence (P02745 23-245): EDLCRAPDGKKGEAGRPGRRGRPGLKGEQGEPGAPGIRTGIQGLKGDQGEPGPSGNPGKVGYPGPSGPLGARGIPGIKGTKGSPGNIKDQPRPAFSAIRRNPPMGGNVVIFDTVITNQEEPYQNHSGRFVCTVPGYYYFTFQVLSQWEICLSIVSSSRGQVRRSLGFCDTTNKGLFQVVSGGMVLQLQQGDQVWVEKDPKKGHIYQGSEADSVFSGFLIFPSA
T2 sequence (P02746 28-253): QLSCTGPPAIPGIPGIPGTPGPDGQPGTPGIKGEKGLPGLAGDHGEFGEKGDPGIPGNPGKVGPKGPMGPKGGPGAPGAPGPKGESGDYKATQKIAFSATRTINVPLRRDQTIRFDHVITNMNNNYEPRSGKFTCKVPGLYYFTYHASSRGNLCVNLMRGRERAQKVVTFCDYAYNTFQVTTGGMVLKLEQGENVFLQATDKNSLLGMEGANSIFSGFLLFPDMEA
T2 sequence (P02747 29-245): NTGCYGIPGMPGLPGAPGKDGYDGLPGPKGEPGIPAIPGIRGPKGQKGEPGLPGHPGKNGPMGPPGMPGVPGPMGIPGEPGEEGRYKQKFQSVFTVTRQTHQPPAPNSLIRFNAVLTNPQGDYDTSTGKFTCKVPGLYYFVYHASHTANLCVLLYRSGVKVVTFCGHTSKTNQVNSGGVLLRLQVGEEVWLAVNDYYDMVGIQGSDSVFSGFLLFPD

Turning to CF-GGG-(GPO)4^NBGPO(GPO)4 [CF^NB(GPO)9], in assay [1] (caged, UV−), the “binding (fluorescence intensity of film)” value was “negligible”. The “level of binding on gelatin relative to collagen” value in assay [1] (photo-activated (UV+)) is reported as “an order of magnitude higher”.
Turning to CF-GGG-(GPO)9 [CF(GPO)9], the “staining of Scl2.28CL bands” value in assay [2] was “failed to stain; also recorded: almost no staining of the Scl2.28CL band”. On complement factor C1q, the “staining of C1q chains” value is given as “almost as effectively as collagens”. Besides, the “staining of fibronectin and laminin bands” value with fibronectin and laminin was “no affinity to fibronectin and laminin”.

The record behind these values is patent US10426850B2, “Collagen mimetic peptides for targeting collagen strands for in vitro and in vivo imaging and therapeutic use” (The Johns Hopkins University, priority 2011, dated 2019).
